# Measurements reported in US6486098B1, “Herbicidal phenoxypropionic acid N-alkyl-N-2-fluorophenyl amide compounds” (Dongbu Hannong Chemical Co. Ltd., priority 1999, dated 2002).
# Where “and” joins values, the source holds several entries; their conditions need not be identical. Equal values may be shown once.
# How the values were obtained:
# barnyard grass (ECHOR) = assay: Experimental Example 2, herbicidal effect on barnyard grass ECHOR; format: in vivo, Ecliinocgloa crus-galli Beauv. var. orygicola Ohwi; conditions: 1˜2 tillering, 200 g a.i per hactare on the leaves, Tech. 98%
# Description: (§1) Rice[Oryza sativa. L. cv.
# (§2) The result is represented in the following table 8.
# Rice (ORYSA) = conditions: 6.0˜6.5 leaves, 200 g a.i per hactare on the leaves, Tech. 98%
# Experimental: Rice[Oryza sativa. L. cv. Chuchong(ORYSA)] and barnyard grass [Eclzinocgloa crus-galli beauv. var. caudate Kitagawa(ECHCG) and Ecliinocgloa crus-galli Beauv. var. orygicola Ohwi (ECHOR)] were planted and grown. The test compounds with 98% purity was dissolved in acetone containing tween-20 and diluted with water. Each maximum concentration of acetone and tween-20 were 25% and 0.1%.
# The solution was sprayed in a proportion of 200 g a.i per hactare on the leaves. When rice{ORYSA} had 6.0˜6.5 leaves with 32.8 cm of the first leaf, barnyard grass(ECHOR) had 1˜2 tillering with 37.3 cm of the first leaf and barnyard grass(ECHCG) had 1˜2 tillering with 44.4 cm of the first leaf.
# 20 and 30 days after treatment (DAT) herbicidal effect and toxicity were measured.
# barnyard grass (ECHCG) = assay: Experimental Example 2, herbicidal effect on barnyard grass ECHCG; format: in vivo, Eclzinocgloa crus-galli beauv. var. caudate Kitagawa; conditions: 1˜2 tillering, 200 g a.i per hactare on the leaves, Tech. 98%
# Description: as §1, §2
# GOSHI (Cotton) = assay: Leaf treatment test, cotton; format: in vivo, Gossypium; conditions: 14 days after treatment
# Experimental: (§3) Seeds of rice, wheat, barley, corn, cotton, barnyard grass, common sorgum, large crabgrass and fall panicum were seeded at a pot with a surface area of 600 cm^2. […] 14 days after the treatment, the degree of damage to the plants was rated in % damage in comparison to the development of untreated control.
# SORBI (Common sorgum) = assay: Leaf treatment test, common sorgum; format: in vivo, Andropogon sorghum; conditions: 14 days after treatment
# Experimental: as §3
# PANDI (Fall panicum) = assay: Leaf treatment test, fall panicum; format: in vivo, Panicum dichotomiflorum Michx; conditions: 14 days after treatment
# Experimental: as §3
# ZEAMX (Corn) = assay: Leaf treatment test, corn; format: in vivo, Zea mays L.; conditions: 14 days after treatment
# Experimental: as §3
# ECHCG (Barnyard grass) = assay: Leaf treatment test, barnyard grass; format: in vivo, Echinochloa crus-galli Beauv. var. caudata Kitagawa; conditions: leaf treatment at three leaves, 14 days after treatment
# Experimental: as §3
# GLXMA (Soy bean) = assay: Leaf treatment test, soy bean; format: in vivo, Glycine max (L.) MERR; conditions: 14 days after treatment
# TRZAW (Wheat) = assay: Leaf treatment test, wheat; format: in vivo, Triticum aestivum L.; conditions: treated amount 0.025 kg/ha, 14 days after treatment
# Experimental: as §3
# DIGSA (Large crabgrass) = assay: Leaf treatment test, large crabgrass; format: in vivo, Digitaria Sanguinalis (L.) SCOP; conditions: 14 days after treatment
# Experimental: as §3
# ORYSA (Rice) = assay: Leaf treatment test, rice; format: in vivo, Oryza sativa L. cv. Dongjin; conditions: 14 days after treatment
# Experimental: as §3
smiles,measurement,setting,value
"CC(Oc1ccc(Oc2nc3ccc(Cl)cc3o2)cc1)C(=O)Nc1ccccc1F (stereo not shown) [control 1, 2-[4-(6-Chloro-2-benzoxazoyloxy)-phenoxy]propionic Acid-N-(2-fluorophenyl)amide, reference compound]","activity (0˜100), 20 DAT ECHOR",barnyard grass (ECHOR),100
same,toxicity (0˜100) 20 DAT,Rice (ORYSA); 20 DAT,22
same,toxicity (0˜100) 30 DAT,Rice (ORYSA); 30 DAT,39
same,"activity (0˜100), 20 DAT ECHCG",barnyard grass (ECHCG),100
same,degree of damage to the plants (% damage),GOSHI (Cotton); treated amount 0.025 kg/ha,0%
same,degree of damage to the plants (% damage),GOSHI (Cotton); treated amount 0.1 kg/ha,0%
same,degree of damage to the plants (% damage),GOSHI (Cotton); treated amount 0.4 kg/ha,0%
same,degree of damage to the plants (% damage),SORBI (Common sorgum); treated amount 0.025 kg/ha,100%
same,degree of damage to the plants (% damage),SORBI (Common sorgum); treated amount 0.1 kg/ha,100%
same,degree of damage to the plants (% damage),SORBI (Common sorgum); treated amount 0.4 kg/ha,100%
same,degree of damage to the plants (% damage),PANDI (Fall panicum); treated amount 0.025 kg/ha,100% and 95%
same,degree of damage to the plants (% damage),PANDI (Fall panicum); treated amount 0.1 kg/ha,100%
same,degree of damage to the plants (% damage),PANDI (Fall panicum); treated amount 0.4 kg/ha,100%
same,degree of damage to the plants (% damage),ZEAMX (Corn); treated amount 0.025 kg/ha,100% and 80%
same,degree of damage to the plants (% damage),ZEAMX (Corn); treated amount 0.1 kg/ha,100%
same,degree of damage to the plants (% damage),ZEAMX (Corn); treated amount 0.4 kg/ha,100%
same,degree of damage to the plants (% damage),ECHCG (Barnyard grass); treated amount 0.025 kg/ha,100%
same,degree of damage to the plants (% damage),ECHCG (Barnyard grass); treated amount 0.1 kg/ha,100%
same,degree of damage to the plants (% damage),ECHCG (Barnyard grass); treated amount 0.4 kg/ha,100%
same,degree of damage to the plants (% damage),GLXMA (Soy bean); treated amount 0.025 kg/ha,0%
same,degree of damage to the plants (% damage),GLXMA (Soy bean); treated amount 0.4 kg/ha,40% and 30%
same,degree of damage to the plants (% damage),TRZAW (Wheat),0%
same,degree of damage to the plants (% damage),DIGSA (Large crabgrass); treated amount 0.025 kg/ha,100%
same,degree of damage to the plants (% damage),DIGSA (Large crabgrass); treated amount 0.1 kg/ha,100%
same,degree of damage to the plants (% damage),DIGSA (Large crabgrass); treated amount 0.4 kg/ha,100%
same,degree of damage to the plants (% damage),ORYSA (Rice); treated amount 0.025 kg/ha,35% and 40%
same,degree of damage to the plants (% damage),ORYSA (Rice); treated amount 0.1 kg/ha,50% and 70%
same,degree of damage to the plants (% damage),ORYSA (Rice); treated amount 0.4 kg/ha,70% and 90%
